Laboratory results from ChEMBL document CHEMBL5226326, “Discovery of 1-Benzoyl 4-Phenoxypiperidines as Small-Molecule Inhibitors of the β-Catenin/B-Cell Lymphoma 9 Protein-Protein Interaction” (J Med Chem, 2021).

What was measured:
[1] = target: T1, beta-catenin-B-cell lymphoma 9 protein complex (Homo sapiens, UniProt P35222); experiment: Inhibition of full length beta-catenin (1 to 781 residues) (unknown origin) expressed in Escherichia coli BL21 (DE3)/N-terminal biotinylated human BCL9 HD2 (350 to 375 residues) protein-protein interaction incubated for 1 hr by Alphascreen assay
T1 sequence (P35222 whole entry): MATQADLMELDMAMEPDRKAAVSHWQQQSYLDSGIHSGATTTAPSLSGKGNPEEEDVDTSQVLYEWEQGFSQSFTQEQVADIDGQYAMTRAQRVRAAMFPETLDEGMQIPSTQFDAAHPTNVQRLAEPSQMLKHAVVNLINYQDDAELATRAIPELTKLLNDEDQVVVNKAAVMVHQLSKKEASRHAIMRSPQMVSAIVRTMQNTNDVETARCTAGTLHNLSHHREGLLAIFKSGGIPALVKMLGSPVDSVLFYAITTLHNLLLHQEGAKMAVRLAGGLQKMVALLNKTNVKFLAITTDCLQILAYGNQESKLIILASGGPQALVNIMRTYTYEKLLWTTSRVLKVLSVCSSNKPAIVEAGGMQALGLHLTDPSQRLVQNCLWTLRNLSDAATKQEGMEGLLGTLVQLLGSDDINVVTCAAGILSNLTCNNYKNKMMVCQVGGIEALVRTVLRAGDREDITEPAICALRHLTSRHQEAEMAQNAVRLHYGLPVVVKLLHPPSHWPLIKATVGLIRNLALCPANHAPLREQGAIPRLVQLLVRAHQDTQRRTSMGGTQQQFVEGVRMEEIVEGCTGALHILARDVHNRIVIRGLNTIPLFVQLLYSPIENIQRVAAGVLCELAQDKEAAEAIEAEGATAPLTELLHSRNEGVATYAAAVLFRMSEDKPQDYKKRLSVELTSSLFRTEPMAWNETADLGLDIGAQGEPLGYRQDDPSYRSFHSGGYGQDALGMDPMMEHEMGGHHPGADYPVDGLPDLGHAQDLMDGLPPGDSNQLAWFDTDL
T1 sequence (O00512 whole entry): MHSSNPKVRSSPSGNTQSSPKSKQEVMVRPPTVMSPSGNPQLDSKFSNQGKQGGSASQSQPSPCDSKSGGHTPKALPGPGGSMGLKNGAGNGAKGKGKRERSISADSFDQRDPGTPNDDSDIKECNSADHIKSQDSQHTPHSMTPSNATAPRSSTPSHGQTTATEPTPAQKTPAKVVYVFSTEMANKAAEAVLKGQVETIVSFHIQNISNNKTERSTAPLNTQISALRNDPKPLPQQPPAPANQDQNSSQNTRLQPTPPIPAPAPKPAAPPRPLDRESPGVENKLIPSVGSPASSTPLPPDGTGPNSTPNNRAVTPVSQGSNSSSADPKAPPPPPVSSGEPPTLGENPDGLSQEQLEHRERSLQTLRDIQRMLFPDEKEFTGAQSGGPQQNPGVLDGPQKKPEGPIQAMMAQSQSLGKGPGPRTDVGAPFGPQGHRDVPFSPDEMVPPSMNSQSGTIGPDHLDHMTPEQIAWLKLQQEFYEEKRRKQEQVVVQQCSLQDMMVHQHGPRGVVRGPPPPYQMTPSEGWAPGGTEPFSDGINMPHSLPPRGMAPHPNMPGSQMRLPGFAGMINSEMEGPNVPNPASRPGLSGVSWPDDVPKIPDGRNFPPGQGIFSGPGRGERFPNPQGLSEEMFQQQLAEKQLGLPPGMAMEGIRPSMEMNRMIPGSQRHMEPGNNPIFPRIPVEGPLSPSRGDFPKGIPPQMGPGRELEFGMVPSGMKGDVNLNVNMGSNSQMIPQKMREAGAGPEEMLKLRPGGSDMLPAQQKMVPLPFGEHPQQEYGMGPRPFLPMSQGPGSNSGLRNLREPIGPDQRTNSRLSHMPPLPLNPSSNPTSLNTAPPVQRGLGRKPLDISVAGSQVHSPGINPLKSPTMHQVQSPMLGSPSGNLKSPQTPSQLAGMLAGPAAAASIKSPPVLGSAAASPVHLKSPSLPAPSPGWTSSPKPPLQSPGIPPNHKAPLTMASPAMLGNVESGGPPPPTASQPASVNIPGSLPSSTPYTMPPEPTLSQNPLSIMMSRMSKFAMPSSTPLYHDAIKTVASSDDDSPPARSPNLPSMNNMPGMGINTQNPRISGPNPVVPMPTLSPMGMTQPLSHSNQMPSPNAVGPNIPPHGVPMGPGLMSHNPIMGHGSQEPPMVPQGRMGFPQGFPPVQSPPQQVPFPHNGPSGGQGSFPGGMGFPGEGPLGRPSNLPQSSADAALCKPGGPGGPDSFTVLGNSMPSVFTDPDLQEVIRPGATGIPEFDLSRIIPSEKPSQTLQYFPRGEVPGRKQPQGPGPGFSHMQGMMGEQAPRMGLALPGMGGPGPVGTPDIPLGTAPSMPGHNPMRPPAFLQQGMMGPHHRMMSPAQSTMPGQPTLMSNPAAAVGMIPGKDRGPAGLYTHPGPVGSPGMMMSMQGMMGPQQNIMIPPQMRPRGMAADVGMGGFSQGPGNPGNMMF

[2] = target: T1, beta-catenin-B-cell lymphoma 9 protein complex; experiment: Inhibition of full length beta-catenin (1 to 781 residues) (unknown origin) expressed in Escherichia coli BL21 (DE3)/N-terminal biotinylated human BCL9 HD2 (350 to 375 residues) protein-protein interaction assessed as inhibition constant incubated for 1 hr by Alphascreen assay

IC50 [1]	Ki [2]	SMILES
> 100 µM	> 84 µM	O=C(c1ccc(O[C@H]2CCNC2)c(C2CCCCC2)c1)N1CCC(Oc2cc(F)cc(N3CCNCC3=O)c2)CC1
≥ 60 µM	50 µM	O=C(c1cc(F)cc(N2CCNCC2)c1)N1CCN(C(=O)c2ccc(O[C@@H]3CCNC3)c(C3CCCCC3)c2)CC1
80 µM	72 µM	CN(C)Cc1cn(Cc2cc(F)cc(OC3CCN(C(=O)c4ccc(O[C@H]5CCNC5)c(C5CCCCC5)c4)CC3)c2)nn1
69 µM	62 µM	NCCC(=O)Nc1cc(F)cc(OC2CCN(C(=O)c3ccc(O[C@H]4CCNC4)c(C4CCCCC4)c3)CC2)c1
> 100 µM	> 84 µM	O=C(c1ccc(O[C@H]2CCNC2)c(C2CCCCC2)c1)N1CCC(Oc2cc(F)cc(N3CCC4(CC3)CNC4)c2)CC1
> 100 µM	> 84 µM	O=C(c1ccc(OC2CCNCC2)c(C2CCCCC2)c1)N1CCC(Oc2cc(F)cc(N3CCNCC3)c2)CC1
> 100 µM	> 84 µM	O=C(c1ccc(O[C@H]2CCNC2)c(C2CCCCC2)c1)N1CCC(Oc2cc(F)cc(N3CC4(CCNCC4)C3)c2)CC1
64 µM	52 µM	O=C(c1ccc(O[C@@H]2CCNC2)c(C2CCCCC2)c1)N1CCC(Oc2cc(F)cc(N3CCNCC3)c2)CC1
18 µM	16 µM	O=C(c1ccc(O[C@H]2CCNC2)c(-c2ccc(C(F)(F)F)cc2)c1)N1CCC(Oc2cc(F)cc(N3CCNCC3)c2)CC1
11 µM	10 µM	O=C(c1ccc(O[C@H]2CCNC2)c(-c2ccc3cn[nH]c3c2)c1)N1CCC(Oc2cc(F)cc(N3CCNCC3)c2)CC1
> 100 µM	> 84 µM	CC(C)(CN)C(=O)NCc1cc(F)cc(OC2CCN(C(=O)c3ccc(O[C@H]4CCNC4)c(C4CCCCC4)c3)CC2)c1
2.7 µM	2.2 µM	CC(C)(C)C1CCC(c2cc(C(=O)N3CCC(Oc4cc(N5CCNCC5)ccc4Cl)CC3)ccc2O[C@H]2CCNC2)CC1 (mixture of isomers)
6.7 µM	5.6 µM	CC(C)(C)C1CCC(c2cc(C(=O)N3CCC(Oc4ccc(F)c(N5CCNCC5)c4)CC3)ccc2O[C@H]2CCNC2)CC1 (mixture of isomers)
5.2 µM	4.4 µM	CC(C)(C)C1CCC(c2cc(C(=O)N3CCC(Oc4cc(C#N)cc(N5CCNCC5)c4)CC3)ccc2O[C@H]2CCNC2)CC1 (mixture of isomers)
17 µM	14 µM	COC(=O)c1ccc(N2CCNCC2)cc1OC1CCN(C(=O)c2ccc(O[C@H]3CCNC3)c(C3CCC(C(C)(C)C)CC3)c2)CC1 (mixture of isomers)
20 µM	17 µM	CC(C)(C)C1CCC(c2cc(C(=O)N3CCC(Oc4cccc(N5CCNCC5)c4)CC3)ccc2O[C@H]2CCNC2)CC1 (mixture of isomers)
3.6 µM	3.2 µM	CC(C)(C)C1CCC(c2cc(C(=O)N3CCC(Oc4cc(F)cc(N5CCNCC5)c4)CC3)ccc2O[C@H]2CCNC2)CC1 (mixture of isomers)

The next lines start with the compound.

SMILES	IC50 [1]	Ki [2]
CC(O)C(=O)N1CCC(c2cc(C(=O)N3CCC(Oc4cc(F)cc(N5CCNCC5)c4)CC3)ccc2O[C@H]2CCNC2)CC1 (stereo partly drawn)	37 µM	34 µM
CC(C)C(=O)N1CCC(c2cc(C(=O)N3CCC(Oc4cc(F)cc(N5CCNCC5)c4)CC3)ccc2O[C@H]2CCNC2)CC1	35 µM	31 µM
NCCCC(=O)Nc1cc(F)cc(OC2CCN(C(=O)c3ccc(O[C@H]4CCNC4)c(C4CCCCC4)c3)CC2)c1	73 µM	66 µM
CC(C)(C)C1CCC(c2cc(C(=O)N3CCC(Oc4cc(N5CCNCC5)cc(C(F)(F)F)c4)CC3)ccc2O[C@H]2CCNC2)CC1 (stereo partly drawn)	4.3 µM	3.6 µM
O=C(c1ccc(O[C@H]2CCNC2)c(C2CCCCC2)c1)N1CCC(Oc2cc(F)cc(N3C[C@H]4CNC[C@H]4C3)c2)CC1	> 100 µM	> 84 µM
CC(C)(C)C1CCC(c2cc(C(=O)N3CCC(Oc4cc(N5CCNCC5)ccc4C(=O)O)CC3)ccc2O[C@H]2CCNC2)CC1 (stereo partly drawn)	> 100 µM	> 84 µM
O=C(c1ccc(O[C@H]2CCNC2)c(C2CCN(C(=O)C3CC3)CC2)c1)N1CCC(Oc2cc(F)cc(N3CCNCC3)c2)CC1	39 µM	35 µM
NCCC(=O)NCc1cc(F)cc(OC2CCN(C(=O)c3ccc(O[C@H]4CCNC4)c(C4CCCCC4)c3)CC2)c1	> 100 µM	> 84 µM
O=C(c1ccc(O[C@H]2CCNC2)c(-c2ccc3[nH]ncc3c2)c1)N1CCC(Oc2cc(F)cc(N3CCNCC3)c2)CC1	8.8 µM	7.9 µM
O=C(c1ccc(O[C@H]2CCNC2)c(-c2ccc3nc[nH]c3c2)c1)N1CCC(Oc2cc(F)cc(N3CCNCC3)c2)CC1	48 µM	43 µM
O=C(c1ccc(O[C@H]2CCNC2)c(C2CCCCC2)c1)N1CCC(Oc2cc(F)cc(N3CCNCC3)c2)CC1	57 µM	46 µM
O=C(c1ccc(O[C@H]2CCNC2)c(-c2ccc3ccsc3c2)c1)N1CCC(Oc2cc(F)cc(N3CCNCC3)c2)CC1	4.5 µM	4 µM
NCc1cn(Cc2cc(F)cc(OC3CCN(C(=O)c4ccc(O[C@H]5CCNC5)c(C5CCCCC5)c4)CC3)c2)nn1	> 100 µM	> 84 µM
CC(C)(C)C(=O)N1CCC(c2cc(C(=O)N3CCC(Oc4cc(F)cc(N5CCNCC5)c4)CC3)ccc2O[C@H]2CCNC2)CC1	> 100 µM	> 84 µM
CC(C)(C)c1ccc(-c2cc(C(=O)N3CCC(Oc4cc(F)cc(N5CCNCC5)c4)CC3)ccc2O[C@H]2CCNC2)cc1	11 µM	10 µM
O=C(c1ccc(O[C@H]2CCNC2)c(-c2ccccc2)c1)N1CCC(Oc2cc(F)cc(N3CCNCC3)c2)CC1	47 µM	42 µM
O=C(c1ccc(O[C@H]2CCNC2)c(C2CCOCC2)c1)N1CCC(Oc2cc(F)cc(N3CCNCC3)c2)CC1	> 100 µM	> 84 µM
O=C(c1ccc(O[C@H]2CCNC2)c(-c2ccc3ccccc3c2)c1)N1CCC(Oc2cc(F)cc(N3CCNCC3)c2)CC1	4.6 µM	4.1 µM
CC(C)(C)C1CCC(c2cc(C(=O)N3CCC(Oc4cc(N5CCNCC5)cc(F)c4F)CC3)ccc2O[C@H]2CCNC2)CC1 (mixture of isomers)	3.7 µM	3.1 µM
CC(C)(C)C1CCC(c2cc(C(=O)N3CCC(Oc4cc(Cl)cc(N5CCNCC5)c4)CC3)ccc2O[C@H]2CCNC2)CC1 (mixture of isomers)	4.3 µM	3.6 µM
O=C(c1ccc(O[C@H]2CCNC2)c(C2CCC(C(F)(F)F)CC2)c1)N1CCC(Oc2cc(F)cc(N3CCNCC3)c2)CC1 (mixture of isomers)	20 µM	13 µM
CC(C)(C)C1CCC(c2cc(C(=O)N3CCC(Oc4cc(N5CCNCC5)ccc4F)CC3)ccc2O[C@H]2CCNC2)CC1 (mixture of isomers)	6.2 µM	5 µM
